What was measured:
Test in all cases: KINOMEscan
Type in all cases: binding
[1] = biological target: CLK4 (Homo sapiens (Human), UniProt Q9HAZ1); conditions: CLK4, 10000 nM; read-out: Percent Control
[2] = biological target: MST3 (Homo sapiens (Human), UniProt Q9Y6E0); conditions: MST3, 10000 nM; read-out: Percent Control
[3] = biological target: DRAK1 (Homo sapiens (Human), UniProt Q9UEE5); conditions: DRAK1, 10000 nM; read-out: Percent Control
[4] = biological target: FLT3(K663Q) (Homo sapiens (Human), UniProt P36888, K663Q); conditions: 10000 nM, read-out: Percent Control
[5] = biological target: EGFR (Homo sapiens (Human), UniProt P00533); conditions: 10000 nM, read-out: Percent Control
[6] = biological target: AXL (Homo sapiens (Human), UniProt P30530); conditions: 10000 nM, read-out: Percent Control
[7] = biological target: SRC (Homo sapiens (Human), UniProt P12931); conditions: 10000 nM, read-out: Percent Control
[8] = biological target: ABL1(Y253F)-phosphorylated (Homo sapiens (Human), UniProt P00519, Y253F); conditions: 10000 nM, read-out: Percent Control
[9] = biological target: STK35 (Homo sapiens (Human), UniProt Q8TDR2); conditions: STK35, 10000 nM; read-out: Percent Control
[10] = biological target: CSF1R-autoinhibited (Homo sapiens (Human), UniProt P07333); conditions: 10000 nM, read-out: Percent Control
[11] = biological target: ANKK1 (Homo sapiens (Human), UniProt Q8NFD2); conditions: ANKK1, 10000 nM; read-out: Percent Control
[12] = biological target: CHEK1 (Homo sapiens (Human), UniProt O14757); conditions: CHEK1, 10000 nM; read-out: Percent Control
[13] = biological target: KIT-autoinhibited (Homo sapiens (Human), UniProt P10721); conditions: 10000 nM, read-out: Percent Control
[14] = biological target: PIP5K1A (Homo sapiens (Human), UniProt Q99755); conditions: 10000 nM, read-out: Percent Control
[15] = biological target: p38-beta (Homo sapiens (Human), UniProt Q15759); conditions: 10000 nM, read-out: Percent Control
[16] = biological target: MELK (Homo sapiens (Human), UniProt Q14680); conditions: 10000 nM, read-out: Percent Control
[17] = biological target: CDKL5 (Homo sapiens (Human), UniProt O76039); conditions: CDKL5, 10000 nM; read-out: Percent Control
[18] = biological target: EGFR(L858R, T790M) (Homo sapiens (Human), UniProt P00533, L858R/T790M); conditions: 10000 nM, read-out: Percent Control
[19] = biological target: RIOK1 (Homo sapiens (Human), UniProt Q9BRS2); conditions: RIOK1, 10000 nM; read-out: Percent Control
[20] = tested on: FLT3(ITD); conditions: 10000 nM
[21] = biological target: CAMK4 (Homo sapiens (Human), UniProt Q16566); conditions: CAMK4, 10000 nM; read-out: Percent Control
[22] = biological target: FLT4 (Homo sapiens (Human), UniProt P35916); conditions: FLT4, 10000 nM; read-out: Percent Control
[23] = biological target: DYRK1A (Homo sapiens (Human), UniProt Q13627); conditions: 10000 nM, read-out: Percent Control
[24] = biological target: CSNK1A1L (Homo sapiens (Human), UniProt Q8N752); conditions: 10000 nM, read-out: Percent Control
[25] = biological target: CSK (Homo sapiens (Human), UniProt P41240); conditions: 10000 nM, read-out: Percent Control
[26] = biological target: ABL1(T315I)-phosphorylated (Homo sapiens (Human), UniProt P00519, T315I); conditions: 10000 nM, read-out: Percent Control
[27] = biological target: ACVR2B (Homo sapiens (Human), UniProt Q13705); conditions: 10000 nM, read-out: Percent Control
[28] = biological target: YANK3 (Homo sapiens (Human), UniProt Q86UX6); conditions: YANK3, 10000 nM; read-out: Percent Control
[29] = biological target: WNK4 (Homo sapiens (Human), UniProt Q96J92); conditions: WNK4, 10000 nM; read-out: Percent Control
[30] = biological target: RPS6KA5(Kin.Dom.2-C-terminal) (Homo sapiens (Human), UniProt O75582); conditions: 10000 nM, read-out: Percent Control
[31] = biological target: PIK3CB (Homo sapiens (Human), UniProt P42338); conditions: 10000 nM, read-out: Percent Control
[32] = biological target: PAK7 (Homo sapiens (Human), UniProt Q9P286); conditions: PAK7, 10000 nM; read-out: Percent Control
[33] = biological target: TAK1 (Homo sapiens (Human), UniProt O43318); conditions: TAK1, 10000 nM; read-out: Percent Control
[34] = biological target: SgK110 (Homo sapiens (Human), UniProt P0C264); conditions: SgK110, 10000 nM; read-out: Percent Control
[35] = biological target: SRMS (Homo sapiens (Human), UniProt Q9H3Y6); conditions: 10000 nM, read-out: Percent Control

Chain of CSNK1A1L (Q8N752 whole entry): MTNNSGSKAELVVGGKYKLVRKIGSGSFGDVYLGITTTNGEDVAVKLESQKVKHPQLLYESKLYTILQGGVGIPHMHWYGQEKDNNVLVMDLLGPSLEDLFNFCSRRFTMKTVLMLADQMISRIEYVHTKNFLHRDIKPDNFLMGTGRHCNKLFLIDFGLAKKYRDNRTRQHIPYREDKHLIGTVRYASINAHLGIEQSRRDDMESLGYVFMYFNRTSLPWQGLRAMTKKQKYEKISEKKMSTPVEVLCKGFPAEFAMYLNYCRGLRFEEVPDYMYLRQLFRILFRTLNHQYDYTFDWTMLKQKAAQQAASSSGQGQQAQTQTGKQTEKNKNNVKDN
Chain of EGFR(L858R, T790M) (P00533 25-1210 T790M/L858R): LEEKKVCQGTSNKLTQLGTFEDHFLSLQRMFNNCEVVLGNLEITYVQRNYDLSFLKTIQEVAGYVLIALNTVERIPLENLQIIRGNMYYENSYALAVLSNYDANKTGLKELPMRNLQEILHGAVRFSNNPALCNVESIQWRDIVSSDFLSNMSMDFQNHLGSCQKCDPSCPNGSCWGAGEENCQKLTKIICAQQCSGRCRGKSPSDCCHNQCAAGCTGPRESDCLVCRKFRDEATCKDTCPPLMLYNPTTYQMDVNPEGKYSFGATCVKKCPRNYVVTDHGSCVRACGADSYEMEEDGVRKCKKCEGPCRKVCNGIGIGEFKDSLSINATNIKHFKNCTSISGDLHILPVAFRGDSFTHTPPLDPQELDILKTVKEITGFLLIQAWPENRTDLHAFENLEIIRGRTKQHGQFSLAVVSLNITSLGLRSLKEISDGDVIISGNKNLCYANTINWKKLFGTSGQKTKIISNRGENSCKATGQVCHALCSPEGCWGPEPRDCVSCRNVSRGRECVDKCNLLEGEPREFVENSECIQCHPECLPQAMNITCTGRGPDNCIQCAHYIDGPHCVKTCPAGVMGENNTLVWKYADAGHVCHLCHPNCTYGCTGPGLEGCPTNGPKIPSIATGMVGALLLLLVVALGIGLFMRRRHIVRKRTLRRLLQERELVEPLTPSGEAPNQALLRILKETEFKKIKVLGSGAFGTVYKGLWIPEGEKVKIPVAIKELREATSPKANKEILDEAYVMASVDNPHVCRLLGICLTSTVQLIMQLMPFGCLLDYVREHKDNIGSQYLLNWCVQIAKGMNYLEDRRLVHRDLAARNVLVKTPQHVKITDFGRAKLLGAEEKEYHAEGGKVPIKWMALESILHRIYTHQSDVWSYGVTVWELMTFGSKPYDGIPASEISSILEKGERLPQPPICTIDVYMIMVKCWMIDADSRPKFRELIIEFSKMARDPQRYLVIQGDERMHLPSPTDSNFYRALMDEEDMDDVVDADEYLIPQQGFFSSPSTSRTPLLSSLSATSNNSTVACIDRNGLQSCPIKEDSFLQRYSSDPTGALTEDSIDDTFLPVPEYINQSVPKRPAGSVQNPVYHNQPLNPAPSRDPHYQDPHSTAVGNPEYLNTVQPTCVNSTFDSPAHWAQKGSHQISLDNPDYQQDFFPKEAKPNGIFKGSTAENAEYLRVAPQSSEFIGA
Chain of MST3 (Q9Y6E0 whole entry): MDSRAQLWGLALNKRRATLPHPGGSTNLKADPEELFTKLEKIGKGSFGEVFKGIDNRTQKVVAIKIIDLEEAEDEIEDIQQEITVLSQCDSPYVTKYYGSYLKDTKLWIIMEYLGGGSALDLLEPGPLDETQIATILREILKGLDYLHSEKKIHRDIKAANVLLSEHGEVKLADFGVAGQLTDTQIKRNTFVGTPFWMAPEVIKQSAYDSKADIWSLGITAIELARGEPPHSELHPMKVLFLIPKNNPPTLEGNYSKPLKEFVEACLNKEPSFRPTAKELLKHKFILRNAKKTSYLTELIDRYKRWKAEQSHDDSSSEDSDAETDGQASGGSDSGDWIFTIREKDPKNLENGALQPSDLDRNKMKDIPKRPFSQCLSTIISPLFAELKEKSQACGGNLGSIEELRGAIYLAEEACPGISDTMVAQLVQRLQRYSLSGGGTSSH
Chain of YANK3 (Q86UX6 whole entry): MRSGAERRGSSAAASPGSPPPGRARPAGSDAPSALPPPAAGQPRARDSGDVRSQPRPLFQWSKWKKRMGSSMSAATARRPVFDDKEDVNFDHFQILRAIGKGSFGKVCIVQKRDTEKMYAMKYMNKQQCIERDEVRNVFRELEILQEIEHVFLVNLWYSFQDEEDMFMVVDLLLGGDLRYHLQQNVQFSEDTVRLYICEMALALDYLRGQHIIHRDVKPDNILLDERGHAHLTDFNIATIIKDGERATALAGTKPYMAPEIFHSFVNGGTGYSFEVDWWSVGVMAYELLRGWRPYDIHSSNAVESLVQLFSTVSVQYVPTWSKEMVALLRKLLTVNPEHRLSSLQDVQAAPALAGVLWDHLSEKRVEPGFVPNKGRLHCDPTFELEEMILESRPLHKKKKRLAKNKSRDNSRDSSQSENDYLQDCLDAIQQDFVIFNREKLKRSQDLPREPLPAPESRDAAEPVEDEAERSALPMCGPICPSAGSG
Chain of TAK1 (O43318 whole entry): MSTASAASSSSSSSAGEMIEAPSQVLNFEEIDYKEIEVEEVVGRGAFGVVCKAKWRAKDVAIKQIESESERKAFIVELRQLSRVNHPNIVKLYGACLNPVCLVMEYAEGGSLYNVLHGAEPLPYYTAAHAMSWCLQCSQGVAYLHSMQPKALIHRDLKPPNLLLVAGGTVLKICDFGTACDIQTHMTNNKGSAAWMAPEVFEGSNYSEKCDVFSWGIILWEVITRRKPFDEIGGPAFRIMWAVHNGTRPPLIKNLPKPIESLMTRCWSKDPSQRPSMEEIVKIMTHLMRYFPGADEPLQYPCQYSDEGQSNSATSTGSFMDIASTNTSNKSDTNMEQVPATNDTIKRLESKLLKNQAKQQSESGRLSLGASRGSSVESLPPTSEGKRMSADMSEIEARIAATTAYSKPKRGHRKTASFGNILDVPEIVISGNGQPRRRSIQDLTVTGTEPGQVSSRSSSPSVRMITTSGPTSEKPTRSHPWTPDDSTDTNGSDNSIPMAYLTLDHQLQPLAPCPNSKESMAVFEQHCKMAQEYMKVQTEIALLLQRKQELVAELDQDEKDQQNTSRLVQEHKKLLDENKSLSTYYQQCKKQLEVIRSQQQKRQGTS
Chain of RIOK1 (Q9BRS2 whole entry): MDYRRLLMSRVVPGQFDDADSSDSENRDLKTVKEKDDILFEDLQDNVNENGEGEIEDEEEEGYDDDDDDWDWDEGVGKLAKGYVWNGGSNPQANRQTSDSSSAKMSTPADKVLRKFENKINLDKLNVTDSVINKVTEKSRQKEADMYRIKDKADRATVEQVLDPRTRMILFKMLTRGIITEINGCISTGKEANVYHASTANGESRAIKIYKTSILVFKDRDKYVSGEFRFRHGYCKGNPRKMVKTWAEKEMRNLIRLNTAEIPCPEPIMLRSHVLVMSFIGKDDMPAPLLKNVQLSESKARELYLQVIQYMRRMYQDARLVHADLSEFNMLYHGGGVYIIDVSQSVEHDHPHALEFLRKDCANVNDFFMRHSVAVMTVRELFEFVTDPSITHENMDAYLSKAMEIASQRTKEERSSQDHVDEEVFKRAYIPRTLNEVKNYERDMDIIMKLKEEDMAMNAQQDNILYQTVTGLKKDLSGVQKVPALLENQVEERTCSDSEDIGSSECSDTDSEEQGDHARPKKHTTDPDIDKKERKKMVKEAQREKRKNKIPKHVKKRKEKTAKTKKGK
Chain of STK35 (Q8TDR2 whole entry): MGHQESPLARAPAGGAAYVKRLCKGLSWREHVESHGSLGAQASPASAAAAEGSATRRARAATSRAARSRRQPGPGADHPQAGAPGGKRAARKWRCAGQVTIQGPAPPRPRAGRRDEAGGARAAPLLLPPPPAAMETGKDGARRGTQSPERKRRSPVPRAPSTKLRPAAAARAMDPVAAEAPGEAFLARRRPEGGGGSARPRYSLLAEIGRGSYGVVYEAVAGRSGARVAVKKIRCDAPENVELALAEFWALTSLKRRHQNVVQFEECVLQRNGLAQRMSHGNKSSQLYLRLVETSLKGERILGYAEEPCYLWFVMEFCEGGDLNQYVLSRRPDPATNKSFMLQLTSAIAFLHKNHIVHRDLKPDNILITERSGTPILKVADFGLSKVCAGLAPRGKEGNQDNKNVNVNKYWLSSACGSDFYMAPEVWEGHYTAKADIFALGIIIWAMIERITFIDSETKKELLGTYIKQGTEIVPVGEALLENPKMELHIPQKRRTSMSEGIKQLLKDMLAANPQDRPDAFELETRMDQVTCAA
Chain of MELK (Q14680 whole entry): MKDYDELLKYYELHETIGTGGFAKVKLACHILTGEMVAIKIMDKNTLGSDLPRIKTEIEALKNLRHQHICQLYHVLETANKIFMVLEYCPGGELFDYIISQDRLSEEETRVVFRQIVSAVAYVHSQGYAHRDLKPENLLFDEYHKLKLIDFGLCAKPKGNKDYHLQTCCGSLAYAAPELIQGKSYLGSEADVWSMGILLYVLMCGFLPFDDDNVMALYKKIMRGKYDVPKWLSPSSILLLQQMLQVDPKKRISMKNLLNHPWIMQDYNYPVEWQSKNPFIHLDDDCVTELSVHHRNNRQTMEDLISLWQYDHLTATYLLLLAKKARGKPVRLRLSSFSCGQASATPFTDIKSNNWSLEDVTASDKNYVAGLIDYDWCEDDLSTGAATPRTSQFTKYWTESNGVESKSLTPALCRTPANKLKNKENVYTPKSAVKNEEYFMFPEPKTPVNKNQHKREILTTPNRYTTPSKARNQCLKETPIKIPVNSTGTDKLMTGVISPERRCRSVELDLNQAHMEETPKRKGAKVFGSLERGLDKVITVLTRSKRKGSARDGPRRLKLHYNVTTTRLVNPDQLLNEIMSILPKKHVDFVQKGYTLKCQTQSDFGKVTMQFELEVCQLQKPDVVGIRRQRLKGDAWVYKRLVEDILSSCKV

Structure (SMILES) | remaining binding at 10 µM [1] | remaining binding at 10 µM [2] | remaining binding at 10 µM [3] | remaining binding at 10 µM [4] | remaining binding at 10 µM [5] | remaining binding at 10 µM [6] | remaining binding at 10 µM [7] | remaining binding at 10 µM [8] | remaining binding at 10 µM [9] | remaining binding at 10 µM [10] | remaining binding at 10 µM [11] | remaining binding at 10 µM [12] | remaining binding at 10 µM [13] | remaining binding at 10 µM [14] | remaining binding at 10 µM [15] | remaining binding at 10 µM [16] | remaining binding at 10 µM [17] | remaining binding at 10 µM [18] | remaining binding at 10 µM [19] | Percent Control [20] | also measured
COc1cc(N2CCC(N3CCN(C)CC3)CC2)ccc1Nc1ncc2c(n1)N(C)c1sc(C)nc1C(=O)N2 [Compound 3, 6-((2-methoxy-4-(4-(4-methylpiperazin-1-yl)piperidin-1-yl)phenyl)amino)-2,4-dimethyl-4,9-dihydro-10H-pyrimido[5,4-b]thiazolo[5,4-e][1,4]diazepin-10-one] | 76% | 89% | 95% | 96% | 90% | 100% | 63% | 47% | 89% | 90% | 80% | 79% | 100% | 100% | 55% | 99% | 97% | 100% | 62% | 83% | remaining binding at 10 µM [21]: 98%; remaining binding at 10 µM [22]: 92%; remaining binding at 10 µM [23]: 100%; remaining binding at 10 µM [24]: 78%; remaining binding at 10 µM [25]: 85%; remaining binding at 10 µM [26]: 93%; remaining binding at 10 µM [27]: 92%; remaining binding at 10 µM [28]: 68%; remaining binding at 10 µM [29]: 100%; remaining binding at 10 µM [30]: 72%; remaining binding at 10 µM [31]: 97%; remaining binding at 10 µM [32]: 97%; remaining binding at 10 µM [33]: 95%; remaining binding at 10 µM [34]: 86%; remaining binding at 10 µM [35]: 78%
COc1cc(N2CCC(N3CCN(C)CC3)CC2)ccc1Nc1ncc2c(n1)N(C)c1sc(C)nc1C(=O)N2C [Compound 5, 6-((2-methoxy-4-(4-(4-methylpiperazin-1-yl)piperidin-1-yl)phenyl)amino)-2,4,9-trimethyl-4,9-dihydro-10H-pyrimido[5,4-b]thiazolo[5,4-e][1,4]diazepin-10-one] | 85% | 90% | 100% | 96% | 100% | 97% | 100% | 100% | 100% | 100% | 92% | 59% | 100% | 100% | 95% | 88% | 100% | 80% | 100% | 100% | remaining binding at 10 µM [21]: 100%; remaining binding at 10 µM [22]: 100%; remaining binding at 10 µM [23]: 87%; remaining binding at 10 µM [24]: 100%; remaining binding at 10 µM [25]: 100%; remaining binding at 10 µM [26]: 98%; remaining binding at 10 µM [27]: 100%; remaining binding at 10 µM [28]: 98%; remaining binding at 10 µM [29]: 100%; remaining binding at 10 µM [30]: 63%; remaining binding at 10 µM [31]: 87%; remaining binding at 10 µM [32]: 88%; remaining binding at 10 µM [33]: 100%; remaining binding at 10 µM [34]: 92%; remaining binding at 10 µM [35]: 97%

Reference: patent US12365696B2, “Small-molecule focal adhesion kinase (FAK) inhibitors” (DANA-FARBER CANCER INSTITUTE, INC., priority 2019, dated 2025)
